Experimental data from patent publication US9926354B2, “Amyloid precursor protein (APP) based Ã#-secretase inhibitor peptides, and methods of use” (UNIVERSITY OF SOUTH FLORIDA, priority 2014, dated 2018).
Values joined by “and” are separate entries in the source; they are usually repeats but may differ in a detail not shown here. Identical values can stand only once.

Experiments:
[1] = system: CHO cells over-expressing human Swedish mutant APP (CHO/APPswe); test: Aβ and sAPPα production in cultured media of CHO/APPswe cells by ELISA; type: cell-based, Chinese hamster; settings: 20 μg/mL, 24 hours
Procedure: (§1) Cell Culture—Chinese hamster ovary (CHO) cells engineered to express wild-type human APP (CHO/APPwt cells) or Swedish mutant human APP (CHO/APPswe cells) were kindly provided by Dr. Stefanie Hahn and Dr. Sascha Weggen (University of Heinrich Heine, Dusseldorf, Germany). As described previously (Obregon et al., 2012), these cells were cultured in Dulbecco's modified Eagle's medium (DMEM) with 10% fetal bovine serum (FBS), 1 mM sodium pyruvate, and 100 units/mL of penicillin and streptomycin.
(§2) To confirm the binding of APPsweBBP with BACE1, CHO/APPwt cells were plated in 8-well chambers (5×10^5/well), incubated with TAT-APPsweBBP-biotin or APPsweBBP-biotin at 20 μM for 30 minutes, fixed with 4% paraformaldehyde for 20 minutes, washed and permeabilized with 0.5% Triton X-100. Following application of blocking buffer, these cells were stained with mouse anti-BACE1 and rabbit anti-biotin antibodies overnight at 4° C. for immunocytochemistry analysis. In order to determine the inhibitory effects of TAT-APPsweBBP on BACE1-mediated APP β-cleavage and subsequent Aβ production, both CHO/APPwt and CHO/APPswe cells were plated in 24 well-plates (3×10^5/well) and treated with TAT-APPsweBBP at 0-20 μM for 24 hours. The cultured media were collected for Aβ analysis by enzyme-linked immunosorbent assay (ELISA) and sAPPα analysis by ELISA and Western blot (WB). Cell lysates were also prepared for analysis of APP amyloidogenic processing by WB.
(§3) ELISA—Mouse brains were homogenized in ice-cold lysis buffer for 30 seconds using a Minilys tissue homogenizer (Bertin Technologies, Montigny-le-Bretonneux, France) set at high speed, allowed to stand for 15 minutes at 4° C., and centrifuged at 15,000 rpm for 30 minutes. Soluble Aβ1-40/42 species and sAPPα were directly detected in cultured cell media or brain homogenates using the Aβ1-40/42 (Invitrogen) and sAPPα ELISA kits (IBL-America, Minneapolis, Minn., USA).
(§4) To further examine the ability of the Swedish mutant APP BACE1 binding peptide/Tat fusion peptides to decrease Aβ production, CHO cells overexpressing either human wild-type APP (CHO/APPwt cells) or Swedish mutant APP (hereinafter referred to as “CHO/APPswe cells”) are treated with a variety of APP-based BACE1 inhibitor peptides, as shown in Table 1 and Table 2. Aβ production is determined using ELISA.

[2] = system: CHO cells over-expressing human wild-type APP (CHO/APPwt); test: Aβ and sAPPα production in cultured media of CHO/APPwt cells by ELISA (24 hours); type: cell-based, Chinese hamster; settings: 20 μg/mL
Procedure: as §1
as §2, with “In order to determine the inhibitory effects of TAT-APPsweBBP on BACE1-mediated APP β-cleavage and subsequent Aβ production, both CHO/APPwt and CHO/APPswe cells were plated in 24 well-plates (3×10^5/well) and treated with TAT-APPsweBBP at 0-20 μM for 24 hours.” left out
as §3, §4

BACE1 = BACE1 (Homo sapiens, UniProt P56817); test: BACE1 activity assay (FRET, cell-free); type: biochemical; parameters: purchased Pan Vera Co., Madison, Wis., USA; settings: peptide final concentration 20 μM, 90 minutes, room temperature
Procedure: BACE1 Activity Assay—The BACE1 inhibiting activity of APP-based BACE1 site binding peptides were determined using a fluorescence resonance energy transfer (FRET) assay (Pan Vera Co., Madison, Wis., USA), which employs a recombinant baculovirus-expressed BACE1 and a specific substrate (Rh-[…]-quencher) that is based on the APPswe mutation. This specific peptide substrate becomes highly fluorescent upon enzymatic cleavage. A mixture of 10 μL of BACE1 (1.0 U/mL in 50 mM Tris, pH7.5, 10% glycerol), 10 μL of FRET-substrate, and 10 μL of the various APP-based BACE1 site binding peptides (final concentration 20 μM) were incubated for 90 minutes in the dark at room temperature. Then, 10 μL of BACE1 stop buffer (2.5 M sodium acetate) was added to the mixture. Fluorescence was read using a fluorometer, with excitation at 545 nm and emission at 585 nm.
As a required enzyme for the generation of neurotoxic Aβ from APP, BACE1 is well established as an important mediator of AD β-amyloid pathology. As such, it has become an important target for new disease modifying therapeutics. However, since BACE1 also has important physiological roles, abolishment of the enzyme or its activity may lead to deleterious side effects as evidenced by numerous failed clinical trials discussed previously. […] Since previous studies have established a close relationship between α-helix structure and peptide-protein (or protein-protein) interactions (Azzarito, 2013; Rao et al., 2013), several APP based peptides were synthesized that might serve as a preferable substrate for BACE1. Importantly, these peptides were free of the Aβ-containing segment and, thus, cannot be amyloidogenic. In theory, these could be used to “hijack” the BACE1 processing of endogenous APP and lead to a decrease in cerebral Aβ. These BACE1 substrates and controls were incubated with recombinant BACE1 and percent of inhibition of the enzyme was calculated. […] These findings indicate that the α-helical TAT fusion domain may help to promote selective APPsweBBP proteolysis by BACE1, yielding substrate competition against human wild-type APP.

CHO/APPwt cells = test: Aβ production in CHO/APPwt cells by ELISA (Example 1, 4 hours); type: cell-based, Chinese hamster; settings: 20 μg/mL
Procedure: To examine the effects of various Swedish Tat fusion peptides on Aβ production, human wild-type amyloid precursor protein (APP) is overexpressed in Chinese hamster ovary cells (hereinafter referred to as CHO/APPwt cells), and the cells are treated with either PBS control (Phosphate buffered saline); Swedish peptide-1 (SwePep-1), […] (also referred herein as “APPsweBBP1”) (SEQ ID NO: 5); Swedish peptide-2 (SwePep-2) (also referred herein as “APPsweBBP”), […] (SEQ ID NO: 1); Swedish Tat fusion peptide-1 (SweTatPep-1), […] (also referred herein as “APPsweBBP/TTD1”) (SEQ ID NO: 6); or Swedish Tat fusion peptide-2 (SweTatPep-2) (also referred herein as “APPsweBBP/TTD2” and “TAT-APPsweBBP”), […] (SEQ ID NO: 3). APPsweBBP is a truncated fragment of APPswe spanning 12 amino acid residues (Glu665-Arg676). TAT, an 11-amino acid-residue protein-transduction domain derived from the HIV-1 transactivator of transcription protein, was conjugated at the C-terminus of APPsweBBP and biotin was conjugated at the N-terminus.
Following treatment, Aβ production is determined utilizing ELISA and the results illustrated in FIG. 1A. SweTatPep-2, SwePep-2, SwePep-1 and SweTatPep-1 each reduce Aβ40,42 by 63-65%, 30-33%, 31-34% and 37-38%, respectively.

Chain of BACE1 (P56817 46-501): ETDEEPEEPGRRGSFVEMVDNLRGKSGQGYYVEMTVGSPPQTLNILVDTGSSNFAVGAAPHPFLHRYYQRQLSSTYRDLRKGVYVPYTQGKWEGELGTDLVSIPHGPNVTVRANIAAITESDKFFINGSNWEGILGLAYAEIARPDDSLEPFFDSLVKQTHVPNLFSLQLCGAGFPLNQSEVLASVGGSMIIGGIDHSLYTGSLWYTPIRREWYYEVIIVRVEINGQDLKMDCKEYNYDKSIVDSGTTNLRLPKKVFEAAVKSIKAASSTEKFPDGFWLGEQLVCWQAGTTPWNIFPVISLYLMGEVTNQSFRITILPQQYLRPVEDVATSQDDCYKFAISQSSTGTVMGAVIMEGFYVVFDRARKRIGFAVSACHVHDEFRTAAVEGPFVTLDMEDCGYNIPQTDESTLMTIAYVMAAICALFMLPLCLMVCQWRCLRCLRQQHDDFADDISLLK

Row | Sequence | Secreted Aβ40 (ng/mg; mean ± SD) [1] | Secreted Aβ42 (ng/mg; mean ± SD) [1] | Secreted sAPPα (ng/mg; mean ± SD) [1] | Secreted Aβ40 (ng/mg; mean ± SD) [2] | Secreted Aβ42 (ng/mg; mean ± SD) [2] | Secreted sAPPα (ng/mg; mean ± SD) [2] | % of inhibition (mean ± SD) of BACE1 (BACE1) | reduction of Aβ40,42 (CHO/APPwt cells) | % of inhibition (mean ± SD) of BACE1 (BACE1; 20 µM)
1 | EISEVKMDAEFR (listed as Homo sapiens) [APPwtBBP] | 59.84 ± 11.23 ng/mg | 9.78 ± 1.07 ng/mg | 201.65 ± 11.54 ng/mg | 10.89 ± 0.76 ng/mg | 1.18 ± 0.051 ng/mg | 4762.21 ± 164.89 ng/mg | 16.23% | – | –
2 | EISEVNLDAEFR (listed as Homo sapiens) [APPsweBBP2] | 41.41 ± 8.43 ng/mg | 6.54 ± 0.85 ng/mg | 253.56 ± 20.11 ng/mg | 7.01 ± 1.02 ng/mg | 0.73 ± 0.034 ng/mg | 5201.64 ± 119.63 ng/mg | – | 30-33% | ~40% and 38.43%
3 | EVKMDAEFR (listed as Homo sapiens) [APPwtBBP3] | 61.36 ± 8.34 ng/mg | 10.93 ± 1.98 ng/mg | 199.83 ± 14.65 ng/mg | 11.43 ± 1.01 ng/mg | 1.09 ± 0.061 ng/mg | 4699.78 ± 178.43 ng/mg | 4.89 ± 0.06% | – | –
4 | EVNLDAEFR (listed as Homo sapiens) [APPsweBBP3] | – | 7.12 ± 0.84 ng/mg | 231.26 ± 14.28 ng/mg | 10.23 ± 0.73 ng/mg | 0.92 ± 0.041 ng/mg | 4709.43 ± 123.74 ng/mg | 14.32 ± 0.04% | – | –
5 | IKTEEISEVKMDAEFR (listed as Homo sapiens) [APPwtBBP1] | 62.43 ± 9.43 ng/mg | 8.91 ± 0.83 ng/mg | 217.35 ± 17.32 ng/mg | 11.23 ± 0.89 ng/mg | 1.23 ± 0.043 ng/mg | 4874.42 ± 174.56 ng/mg | – | – | –
6 | IKTEEISEVNLDAEFR (listed as Homo sapiens) [APPsweBBP1] | 57.23 ± 11.65 ng/mg | 9.01 ± 1.07 ng/mg | 211.43 ± 18.31 ng/mg | 9.67 ± 0.84 ng/mg | 1.07 ± 0.054 ng/mg | 4711.83 ± 201.45 ng/mg | – | 31-34% | –
7 | YGRKKRRQRRREISEVKMDAEFR (human-virus fusion) [APPwtBBP/TTD2] | 40.32 ± 8.43 ng/mg | 6.78 ± 0.92 ng/mg | 267.92 ± 15.88 ng/mg | 6.53 ± 0.81 ng/mg | 0.68 ± 0.034 ng/mg | 5291.14 ± 142.75 ng/mg | 21.01 ± 1.42% | – | –
8 | YGRKKRRQRRREVKMDAEFR (human-virus fusion) [APPwtBBP/TTD3] | 57.45 ± 13.11 ng/mg | 9.56 ± 1.11 ng/mg | 201.23 ± 21.23 ng/mg | 10.12 ± 1.11 ng/mg | – | 4699.15 ± 155.92 ng/mg | – | – | –
9 | YGRKKRRQRRREVNLDAEFR (human-virus fusion) [APPsweBBP/TTD3] | 41.87 ± 5.76 ng/mg | 8.43 ± 0.95 ng/mg | 211.37 ± 18.93 ng/mg | 8.74 ± 0.55 ng/mg | 0.93 ± 0.048 ng/mg | 5001.45 ± 271.34 ng/mg | – | – | –
10 | YGRKKRRQRRRIKTEEISEVKMDAEFR (human-virus fusion) [APPwtBBP/TTD1] | 64.21 ± 12.12 ng/mg | 7.82 ± 0.67 ng/mg | 229.45 ± 12.73 ng/mg | 9.32 ± 0.68 ng/mg | 1.01 ± 0.052 ng/mg | 4688.12 ± 109.65 ng/mg | – | – | –
11 | YGRKKRRQRRRIKTEEISEVNLDAEFR (human-virus fusion) [APPsweBBP/TTD1] | – | 7.98 ± 0.81 ng/mg | 236.32 ± 13.09 ng/mg | 8.93 ± 0.82 ng/mg | 0.95 ± 0.037 ng/mg | 4901.54 ± 211.54 ng/mg | – | 37-38% | –
